Measured values as given in US9399631B2, “Polyphenol proteasome inhibitors, synthesis, and methods of use” (UNIVERSITY OF SOUTH FLORIDA, priority 2003, dated 2016).
Entries after “also recorded” stand apart in the source; their conditions may differ. Like-named read-outs stand apart in the source and are kept apart here.

Assays:
[1] = test system: purified 20S proteasome; experiment: Inhibition of chymotrypsin-like activity of purified 20S proteasome (source not stated); type: biochemical
Protocol: (§1) Inhibition of purified 20S proteasome activity by natural or synthetic GTPs. Purified prokaryotic (0.5 μg) or eukaryotic (0.02 μg) 20S proteasome was incubated with 20 μM fluorogenic peptide substrate, Suc-Leu-Leu-Val-Tyr-AMC for 30 min at 37° C. in […] of assay buffer (50 mM Tris-HCl, pH 7.5), with or without a natural or synthetic tea polyphenol. After incubation, production of hydrolyzed 7-amido-4-methyl-coumarin (AMC) groups was measured using a multi-well plate VERSAFLUOR Fluorometer with an excitation filter of 380 nm and an emission filter of 460 nm (BIO-RAD), and a multi-well plate reader Wallac 1420 VICTORTM^2 with an excitation filter of 355 nm and an emission filter of 460 nm (EG&G WALLAC).

[2] = test system: LNCaP cells; experiment: Soft agar colony formation assay; type: cell-based, human; settings: 10 μM, 14 day-incubation
Protocol: Soft Agar Assay. The soft agar assay was performed according to Smith et al. (Smith, D. M. et al. Mol Med, 2002, 8:382-392) with a few modifications. In brief, in a six-well plate, a bottom feeder layer (0.6% agar) was prepared with DMEM media containing 10% fetal bovine serum, 100 units/ml penicillin, and 100 μg/ml streptomycin. A top layer (0.3% agar) was prepared with DMEM and the same media as described above but containing 2×10^4 prostate cancer LNCaP cells and indicated analogs or DMSO as a control. Plates were incubated at 37° C. in 5% CO2 in a humidified incubator for two weeks. MTT (1 mg/ml) was added to each well and incubated overnight to allow complete formation of purple formazan crystals. The plates were then scanned and photographed, and the number of colonies was quantified by QUANTITY ONE v.4.0.3 software (Bio-Rad, Hercules, Calif.).
The […] effects of several GTP analogs were investigated with a soft agar assay that measures the transforming activity of human tumor cells. LNCaP cells were plated in soft agar (see Materials and Methods) along with 50 μM of GTP-1, -2, -3, (−)-EGCG (as a positive control; Smith, D. M. et al. Mol Med, 2002, 8:382-392, 2002), or the solvent (as a negative control), followed by a 14 day-incubation to allow for colony formation (FIGS. 12A and 12B).
In a second experiment, LNCaP cells were plated in soft agar along with 10 μM of each indicated GTP or solvent (H2O), followed by a 14 day-incubation to allow for colony formation (FIG. 21A). […] Colonies were quantified with an automated counter and presented as mean values from triplicate independent experiments. Error bars denote standard deviations.

[3] = test system: 26S proteasome in a Jurkat cell lysate; experiment: Chymotrypsin-like activity of 26S proteasome in Jurkat cell lysate; type: biochemical, human; settings: 10 μM
Protocol: To determine the specificity of the synthetic GTP analogs, their effects were tested on the chymotrypsin-like and trypsin-like activities of the 26S proteasome in a Jurkat cell lysate. […] (+)-GCG at the same concentration inhibited ˜50% of the chymotrypsin-like activity. The potencies of (+)-EGCG and (+)-GCG were similar to those of their natural partners, respectively (FIG. 17A). […] Furthermore, none of the synthetic or control natural compounds could inhibit more than 15% of activity of a purified calpain enzyme (FIG. 17C). […] Values are mean triplicates and error bars denote standard deviations.

[4] = molecular target: purified 20S proteasome (UniProt Q9P992); experiment: Inhibition of chymotrypsin-like activity of purified 20S proteasome (source not stated); type: biochemical; design: other: 1 μM; other: 10 μM; settings: 10 μM
Sequence of purified 20S proteasome (UniProt Q9P992) (Q9P992 whole entry): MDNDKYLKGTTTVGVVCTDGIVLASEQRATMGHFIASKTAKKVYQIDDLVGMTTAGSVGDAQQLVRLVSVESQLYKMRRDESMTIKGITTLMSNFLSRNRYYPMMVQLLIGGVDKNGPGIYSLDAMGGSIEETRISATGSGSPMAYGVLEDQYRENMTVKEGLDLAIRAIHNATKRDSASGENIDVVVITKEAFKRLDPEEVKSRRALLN
Protocol: as §1

[5] = molecular target: T1, 20S eukaryotic proteasome (Oryctolagus cuniculus, UniProt G1T4Q9); experiment: Inhibition of chymotrypsin-like activity of purified eukaryotic 20S proteasome (Suc-Leu-Leu-Val-Tyr-AMC); type: biochemical, rabbit; settings: chymotrypsin-like activity, rabbit 20S proteasome
T1 construct: purchased BOSTON BIOCHEM (Cambridge, Mass.)
T1 sequence (G1T4Q9 1-263): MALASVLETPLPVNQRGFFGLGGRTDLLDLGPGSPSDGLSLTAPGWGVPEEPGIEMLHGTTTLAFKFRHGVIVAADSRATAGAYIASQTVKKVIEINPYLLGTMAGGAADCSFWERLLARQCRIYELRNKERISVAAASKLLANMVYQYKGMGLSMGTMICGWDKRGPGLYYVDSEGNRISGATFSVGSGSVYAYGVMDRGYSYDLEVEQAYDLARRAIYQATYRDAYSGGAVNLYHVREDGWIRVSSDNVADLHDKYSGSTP
Protocol: Materials. Highly purified tea polyphenols (−)-EGCG (>95%), (−)-GCG (>98%), (−)-ECG (>98%), (−)-CG (>98%), fetal calf serum, propidium iodide, 3-[4,5-dimethylthiazol-2-yl]-2,5-diphenyltetrazolium bromide (MTT), RNase A, and DMSO were purchased from Sigma (St. Louis, Mo.). (+)-EGCG, benzyl-protected-(+)-EGCG, (+)-GCG, (−)-EGCG-amide, and (+)-EGCG-amide were prepared by enantioselective synthesis (see below). Purified 20S eukaryotic proteasome from rabbit was purchased from BOSTON BIOCHEM (Cambridge, Mass.). Purified 20S prokaryotic proteasome (Methanosarcina thermophile, Recombinant, E. coli) was purchased from CALBIOCHEM (La Jolla, Calif.). Fluorogenic peptide substrates Suc-Leu-Leu-Val-Tyr-AMC (for the proteasomal chymotrypsin-like activity) was obtained from Calbiochem (La Jolla, Calif.). RPMI 1640 medium, Dulbecco's modified Eagle's medium, MEM non-essential amino acids solution, MEM-sodium pyruvate solution, penicillin, and streptomycin were from INVITROGEN (Carlsbad, Calif.). Monoclonal antibody to p27^Kip was purchased from PHARMINGEN (San Diego, Calif.); polyclonal antibodies to IκB-α, Bax and actin, and monoclonal antibody to ubiquitin were from SANTA CRUZ Biotechnology Inc. (Santa Cruz, Calif.).
as §1
Purified prokaryotic (0.5 μg) or eukaryotic (0.02 μg) 20S proteasome was incubated with 20 μM fluorogenic peptide substrate, Suc-Leu-Leu-Val-Tyr-AMC for 30 minutes at 37° C. in 100 μl of assay buffer ([…] Tris-HCl, pH 7.5), with or without a natural or synthetic tea polyphenol. After incubation, production of hydrolyzed AMC groups was measured using a multi-well plate VERSAFLUOR Fluorometer with an excitation filter of 380 nm and an emission filter of 460 nm.
(−)-EGCG at 1 μM was incubated with eukaryotic 20S proteasome (0.02 μg) and suc-LLVY-AMC (20 μM) for the times indicated in FIG. 7. The chymotrypsin activity was measured and graphed in FIG. 7. Values are means from 4 independent experiments, and error bars represent standard deviations.
In the second experiment (−)-EGCG at 1 μM was pre-incubated with (SDS-pre) or without 0.01% SDS (no SDS) for 1 hour, followed by addition of eukaryotic 20S proteasome (0.02 μg) and suc-LLVY-AMC (20 μM). “SDS-post” represents the same treatment as “no SDS” except 0.01% SDS was added 1 hour after addition of the proteasome, (−)-EGCG and the substrate. AMC liberation was measured by fluorescence at each indicated time point and the percentage of chymotrypsin activity was determined. Values are means from 4 independent experiments, and error bars represent standard deviations.

[6] = test system: LNCaP cells; experiment: Western blot of proteasome target proteins in LNCaP cells; type: cell-based, human; settings: 25 μM, up to 9 hours
Protocol: (§2) Cell Culture, Cell Extract Preparation, and Western Blot Assay. Human leukemia Jurkat T and prostate cancer LNCaP cells were cultured in RPMI 1640 medium supplemented with 10% fetal calf serum, 100 units/ml of penicillin, and 100 μg/ml streptomycin. Human immortalized, non-transformed NK cells (YT cell line) (38) were cultured in RPMI 1640 supplemented with 1 mM MEM sodium pyruvate solution, 0.1 mM MEM non-essential amino acids solution, 10% fetal calf serum. 100 units/ml penicillin, and 100 μg/ml streptomycin. Normal (WI-38) and simian virus 40 (SV40)-transformed (VA-13) human fibroblasts were grown in Dulbecco's modified Eagle's medium supplemented with 10% fetal calf serum, 100 units/ml of penicillin and 100 μg/ml of streptomycin. All cells were maintained at 37° C. in a humidified incubator with an atmosphere of 5% CO2. A whole cell extract was prepared in accordance with An et al. (An, B. et al. Cell Death Differ, 1998, 5:1062-75). Briefly, cells were harvested, washed with PBS twice, and homogenized in a lysis buffer [50 mM Tris-HCl (pH 8.0), 5 mM EDTA, 150 mM NaCl, 0.5% NP-40, 0.5 mM phenylmethylsulfonyl fluoride, and 0.5 mM dithiothreitol] for 30 min at 4° C. Afterwards, lysates were centrifuged at 12,000×g for 15 min at 4° C., and the supernatants were collected as whole cell extracts. Equal amounts of protein extract (60 μg) were resolved by SDS-polyacrylamide gel electrophoresis and transferred to a nitrocellulose membrane using a Semi-Dry Transfer system (BIO-RAD, Hercules, Calif.). Jurkat T, LNCaP, or DU-145 cells were treated with various concentrations of synthetic or natural tea polyphenols for indicted hours. The enhanced chemiluminescence (ECL) Western blot analysis was then performed using specific antibodies to the proteins of interest (p^27kip, IκB-α, PARP, Bax or actin). The ratio of p27 or IκB-α to the corresponding actin was determined by scanning intensities of the protein bands.
To investigate whether (−)-EGCG-amide and (+)-EGCG-amide inhibit intact tumor cell proteasome activity, human prostate cancer LNCaP cells were treated with 25 μM of (−)- or (+)-EGCG-amide for up to 9 hours, followed by measurement of p27, IκB-α and Bax, three well-known proteasome target proteins (Pagano, M. et al. Science, 1995, 269:682-685; An, B. et al. Cell Death Differ, 1998, 5:1062-75; Sun, J. et al. Cancer Res, 2001, 61:1280-1284; Palombella, V. J. et al. Cell, 1994, 78:773-785; Thompson, J. E. et al. Cell, 1995, 80:573-582; Perkins, N. D. Trends Biochem Sci, 2000, 25:434-440; Chang, Y. C. et al. Cell Growth Differ, 1998, 9:79-84; Li, B. and Dou, Q. P. Proc Natl Acad Sci USA, 2000, 97:3850-3855; Nam, S. et al. Cancer Epidemiol Biomarkers Prey, 2001, 10:1083-1088). In this experiment (−)-EGCG and (+)-EGCG were used as positive controls.
Having determined that the synthetic GTP-1 to −5 analogs are able to inhibit the proteasomal chymotrypsin-like activity in vitro (FIG. 8), these compounds were investigated for their potency in inhibiting intact tumor cellular proteasome activity. To do so, human prostate cancer LNCaP cells were treated with one of these compounds for the indicated hours, followed by measuring levels of proteasome target proteins, p27, IκB-α, and Bax, and polyubiquitinated proteins.

[7] = test system: VA-13 cells; experiment: Western blot of p27 in SV40-transformed VA-13 fibroblasts; type: cell-based, human; settings: 25 μM, 12 hours
Protocol: as §2
Normal WI-38 and SV40-transformed VA-13 cell lines were treated with 25 μM of (−)-EGCG, (−)-EGCG-amide, (+)-EGCG, (+)-EGCG-amide, or GTP-1 for either 12 hours or 36 hours.

[8] = test system: MCF-7 cells; experiment: Proteasome inhibition / p27 accumulation in MCF-7 cells; type: cell-based, human

O=C(O[C@H]1Cc2c(OCc3ccccc3)cc(OCc3ccccc3)cc2O[C@H]1c1cc(OCc2ccccc2)c(OCc2ccccc2)c(OCc2ccccc2)c1)c1cc(OCc2ccccc2)c(OCc2ccccc2)c(OCc2ccccc2)c1 [Bn-(+)-EGCG]
inhibition of the proteasome (in words) [1]: can not inhibit the proteasome
inhibition of the proteasome (in words) ([1]; listed as benzyl protected-EGCG): cannot inhibit the proteasome; also recorded: fails to inhibit the proteasome
inhibition of colony formation [2]: ~10%
inhibition of chymotrypsin-like activity of 26S proteasome [3]: could not inhibit the proteasomal chymotrypsin activity at all
inhibition of proteasomal activity [4]: did not significantly inhibit

O=C(N[C@H]1Cc2c(O)cc(O)cc2O[C@H]1c1cc(O)c(O)c(O)c1)c1cc(O)c(O)c(O)c1 [(+)-EGCG-amide, (+)-[2S, 3S]-N-[5,7-Dihydroxy-2-(3,4,5-trihydroxyphenyl)-chroman-3-yl]-3,4,5-trihydroxybenzamide]
IC50 [5]: 405 nM
levels of p27, IκB-α and Bax [6]: able to increase levels of p27, IκB-α and Bax by 3 hours
levels of p27 protein [7]: significantly increased levels of p27 protein
inhibition of proteasome activity / accumulation of p27 [8]: able to inhibit the proteasome activity
